In ChEMBL document CHEMBL1201862, “PubChem BioAssay data set” (2004):
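Five concentrations, 48 hours, 96-well plates. GI50 is the concentration that inhibits growth by half.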 The source made the active and inactive calls. Rule as the data show it: active = GI50 up to about 1.1 µM and inactive = higher.

Legend:
Assay in all cases: inhibition of tumour cell growth, NCI panel, 48 h
[1] = tested on: SF-539
[2] = tested on: ACHN
[3] = tested on: SW-620
[4] = tested on: DU-145
[5] = tested on: 786-0
[6] = tested on: OVCAR-4
[7] = tested on: NCI/ADR-RES
[8] = tested on: CAKI-1
[9] = tested on: MDA-MB-231
[10] = tested on: LOX IMVI
[11] = tested on: MCF7
[12] = tested on: KM12
[13] = tested on: HL-60
[14] = tested on: HOP-92
[15] = tested on: M14
[16] = tested on: SR
[17] = tested on: SNB-75
[18] = tested on: SN12C
[19] = tested on: SF-295
[20] = tested on: UO-31

Measured: GI50

CC(C)Oc1c(-c2c(OC(C)C)c(=O)c2=O)c(=O)c1=O
inactive: [1] > 65.8 µM | [2] > 70.6 µM | [3] > 34.9 µM | [4] > 100 µM | [5] > 52.5 µM | [6] > 49.7 µM | [7] 4.81 µM | [8] > 100 µM | [9] > 36.7 µM | [10] > 32.4 µM | [11] > 20.2 µM | [12] > 36.5 µM | [13] 24.7 µM | [14] > 100 µM | [15] > 100 µM | [16] > 100 µM | [17] 48 µM | [18] > 49.2 µM | [19] > 65 µM | [20] > 58.5 µM

O=S(=O)(O)c1ccc(Nc2ccnc3ccccc23)cc1
inactive: [1] > 100 µM | [2] > 100 µM | [3] > 100 µM | [4] > 100 µM | [5] > 100 µM | [6] > 100 µM | [7] > 100 µM | [8] > 100 µM | [9] > 100 µM | [10] > 100 µM | [11] > 100 µM | [12] > 100 µM | [13] > 100 µM | [14] > 100 µM | [15] > 100 µM | [16] > 100 µM | [17] > 100 µM | [18] > 100 µM | [19] > 100 µM | [20] > 100 µM

O=C1c2ccccc2C(=O)c2c1oc1cc(O)c(Cl)cc21
inactive: [1] 5.41 µM | [2] 7 µM | [3] 8.45 µM | [4] 4.89 µM | [5] 10.8 µM | [6] 8.18 µM | [7] 12.7 µM | [8] 16.7 µM | [9] 12.8 µM | [10] 1.61 µM | [11] 8.11 µM | [12] 6.35 µM | [13] 6.92 µM | [14] 8.13 µM | [15] 3.1 µM | [16] 11.8 µM | [17] 2.88 µM | [18] 7.98 µM | [19] 2.8 µM | [20] 11.9 µM

Oc1c(O)c(Cc2ccccc2)c(Cc2ccccc2)c(Cc2ccccc2)c1Cc1ccccc1
inactive: [1] > 10 µM | [2] > 10 µM | [3] > 10 µM | [4] > 10 µM | [5] > 10 µM | [6] > 10 µM | [7] > 10 µM | [8] > 10 µM | [9] > 10 µM | [10] > 10 µM | [11] > 10 µM | [12] > 10 µM | [13] > 10 µM | [14] > 10 µM | [15] > 10 µM | [16] > 10 µM | [17] > 10 µM | [18] > 10 µM | [19] > 10 µM | [20] > 10 µM

Cc1ccc([N+](=O)[O-])cc1S(=O)(=O)Nc1ccc(C2=NOC(c3ccccc3)C2)cc1 (centres undefined)
inactive: [1] 9.77 µM | [2] 13.5 µM | [3] 6 µM | [4] 12 µM | [5] 13.8 µM | [6] 1.32 µM | [7] 3.04 µM | [8] 7.1 µM | [9] 8.99 µM | [10] 10.9 µM | [11] 3.25 µM | [12] 3.57 µM | [13] 5.12 µM | [14] 15.7 µM | [15] 4.11 µM | [16] 1.31 µM | [17] 8.18 µM | [18] 12.9 µM | [19] 3.17 µM | [20] 18.2 µM

CC(C)(C)OC(=O)CN1CCNCCN(CC(=O)OC(C)(C)C)CCNCC1
inactive: [1] > 100 µM | [2] > 100 µM | [3] > 100 µM | [4] > 100 µM | [5] > 100 µM | [6] > 100 µM | [7] > 100 µM | [8] > 100 µM | [9] > 100 µM | [10] 86.7 µM | [11] > 100 µM | [12] 98.9 µM | [13] 36.2 µM | [14] > 100 µM | [16] 26.9 µM | [17] > 100 µM | [18] > 100 µM | [19] > 100 µM | [20] > 100 µM

CC(=O)N1C(OC(C)C)CC(C)N1c1ccccc1 (centres undefined)
inactive: [1] > 10 µM | [2] > 10 µM | [3] > 10 µM | [4] > 10 µM | [5] > 10 µM | [6] > 10 µM | [7] > 10 µM | [8] > 10 µM | [9] > 10 µM | [10] > 10 µM | [11] > 10 µM | [13] > 10 µM | [14] > 10 µM | [15] > 10 µM | [16] > 10 µM | [17] > 10 µM | [18] > 10 µM | [19] > 10 µM

CC(C)(C)OC(=O)NC(Cc1ccc(O)cn1)C(N)=O (centres undefined)
inactive: [1] > 100 µM | [2] > 100 µM | [3] > 100 µM | [4] > 100 µM | [5] > 100 µM | [6] > 100 µM | [7] > 100 µM | [8] > 100 µM | [9] > 100 µM | [10] > 100 µM | [11] > 100 µM | [12] > 100 µM | [13] > 100 µM | [14] > 100 µM | [16] > 100 µM | [17] > 100 µM | [18] > 100 µM | [19] > 100 µM | [20] > 100 µM

Cc1ccc(C2=Nn3c(nc4sc(C)c(C)c4c3=O)SC2)cc1
inactive: [1] > 100 µM | [2] > 100 µM | [3] > 100 µM | [4] > 100 µM | [5] > 100 µM | [6] > 100 µM | [7] > 100 µM | [8] > 100 µM | [9] > 100 µM | [10] > 100 µM | [11] > 100 µM | [12] > 100 µM | [13] > 100 µM | [14] > 100 µM | [16] > 100 µM | [17] 56.4 µM | [18] > 100 µM | [19] > 100 µM | [20] > 100 µM

CCOC(=O)c1c(SC(=O)c2cc(OC)c(OC)c(OC)c2)n(-c2ccccc2)c(=S)n(-c2ccccc2)c1=O
inactive: [1] > 100 µM | [2] > 100 µM | [3] > 100 µM | [4] > 100 µM | [5] > 100 µM | [6] > 100 µM | [7] > 100 µM | [8] > 100 µM | [9] > 100 µM | [10] > 100 µM | [11] > 100 µM | [12] > 100 µM | [13] > 100 µM | [14] > 100 µM | [15] > 100 µM | [16] > 100 µM | [17] > 100 µM | [18] > 100 µM | [19] > 100 µM
